Tests used:
CDK6 = system: CDK6; parameters: method as in AstraZeneca data repository; details: median log of IC50/EC50/Ki/Kd annotations, highest value; ref AstraZeneca data repository; cited from earlier work
C/EBPβ gene expression = test: RT-qPCR gene expression in TG/FA-treated hiPSC-Hep; assay type: cell-based, human; details: 24 h pre-treatment then TG/FA 18 h; relative to TG/FA
Protocol: (§1) To explore the signaling partners triggered or altered by the drugs, we performed gene expression RT-qPCR. The hiPSC-Hep were pre-treated in a 24-well plate with the three compounds shown in Figure 7 for 24 h followed by TG/FA challenge for an additional 18 h and RNA from each treatment well was isolated. The pre-treatment paradigm was chosen to stay consistent with how the original HTS was performed. We analyzed several target gene expression levels in the C/EBP-EP300 pathway including CDK2, CDK4, C/EBPα and C/EBPβ, EP300, and diacylglycerol acyltransferase 2 (DGAT2).
(§2) RNA was isolated from hiPSC-derived hepatocytes using the RNeasy kit (Qiagen, Frederick) and subsequently subjected to DNase digestion (Qiagen). Total RNA was quantified using NanoDrop 8000 (Thermo Scientific). The quality of total RNA was assessed by the Agilent Bioanalyzer Nano chip (Agilent Technologies) and RNA integrity number (RIN) ranged from 9.7 to 10. Reverse transcription was performed using the high capacity cDNA reverse transcription kit (Applied Biosystems, Foster City, CA, USA) according to the manufacturer’s recommendation and the complementary DNA (cDNA) obtained used for real-time quantitative PCR. The reaction mixture (10 μL), containing 1 μL of cDNA template, 0.5 μL each of primer and probe (20×, Thermo Fisher Scientific) mix for the gene of interest plus the reference gene and TaqMan Universal PCR master mix (Applied Biosystems) was added to the opaque white 384-well plates and amplified as follows: after 2 min of initial incubation at 50 °C and 10 min of initial denaturation at 95 °C, 45 cycles at 95 °C for 15 s, 60 °C for 1 min for annealing and 1 sec at 72 °C for final extension were performed. Assays were designed to have primers/probes to span exon–exon junctions (Table S1). Direct detection of PCR products was monitored by measuring the fluorescence produced by the result of TaqMan probe hydrolysis after every cycle. All experiments were carried out in triplicate in a LightCycler 480 thermocycler (Roche Diagnostic). Relative gene expression from qPCR data between groups of samples were assessed using a ∆∆Cq method. To adjust for variations in the cDNA synthesis each gene was normalized to that of hypoxanthine phosphoribosyl transferase 1 (HPRT1] or GAPDH mRNA.

DGAT2 mRNA = test: RT-qPCR gene expression in TG/FA-treated hiPSC-Hep; assay type: cell-based, human; details: dose-dependent, under condition of hepatic steatosis (TG/FA)
Protocol: as §1, §2

SMILES: CNC(=O)c1nn(C)c2c1C(C)(C)Cc1cnc(Nc3ccc(N4CCN(C)CC4)cc3)nc1-2 [C16, Milciclib]
- pXC50 CDK6 (CDK6): 7.61

SMILES: Cc1ncc(-c2nc(Nc3ccc(N4CCN(C(=O)CO)CC4)cc3)ncc2F)n1C(C)C [C3]
- effect on C/EBPβ gene expression (C/EBPβ gene expression): no effect
- DGAT2 mRNA level decreased by (DGAT2 mRNA): 46%
